Assay results: PMC9014415, “Repositioning of a Diaminothiazole Series Confirmed to Target the Cyclin-Dependent Kinase CRK12 for Use in the Treatment of African Animal Trypanosomiasis” (Journal of Medicinal Chemistry, 2022)

Assays:
[1] = Protein plasma binding; format: in vitro ADME; settings: mouse
Description: (§1) 2.4 Protein plasma binding
(§2) This was determined as previously described.6
(§3) 2.5 PK and maximum tolerated dose - mouse
PK studies in female NMRI mice (Figure S1): Test compounds 1, 2 and 10 were dosed SC at 10 mg free base/kg (dose volume 10 mL/kg; dose vehicle: 5% (v/v) DMSO, 40% polyethylene glycol 400 (PEG400) and 55% deionized water) to female NMRI mice (n = 3). Blood samples (10 μL) were taken from each mouse at 0.08, 0.25, 0.5, 1, 2, 4, 6, 8 h post dose (24 h post dose for compounds 2 and 10 only) and mixed with two volumes of deionized water (20 μL). Alternatively, compound 2 was delivered for 48 h via SC implanted ALZET osmotic pumps (10, 25 and 50 mg free base/mL, vehicle: 50% DMSO and 50% deionized water) to the female NMRI mouse (n = 3). Blood samples (10 μL) from each mouse were taken at 1, 3, 6, 24, 30 and 48 h post-dose and mixed with two volumes of deionized water (20 μL).
Compound 1 as free base in 5% DMSO; 40% PEG400; 55% MilliQ water was dosed daily subcutaneously with doses of 50 mg/kg, 100 mg/kg and 300 mg/kg for 3 days.
2.6 PK and formulation studies - male Sprague rats […]

[2] = in vivo; settings: NMRI, mouse
Description: as §1, §2, §3
PK studies in female NMRI mice (Figure S1): Test compounds 1, 2 and 10 were dosed SC at 10 mg free base/kg (dose volume 10 mL/kg; dose vehicle: 5% (v/v) DMSO, 40% polyethylene glycol 400 (PEG400) and 55% deionized water) to female NMRI mice (n = 3). Blood samples (10 μL) were taken from each mouse at 0.08, 0.25, 0.5, 1, 2, 4, 6, 8 h post dose (24 h post dose for compounds 2 and 10 only) and mixed with two volumes of deionized water (20 μL). Alternatively, compound 2 was delivered for 48 h via SC implanted ALZET osmotic pumps (10, 25 and 50 mg free base/mL, vehicle: 50% DMSO and 50% deionized water) to the female NMRI mouse (n = 3). Blood samples (10 μL) from each mouse were taken at 1, 3, 6, 24, 30 and 48 h post-dose and mixed with two volumes of deionized water (20 μL). […]
(§4) Response to treatment was determined by monitoring parasitaemia twice a week until day 21. […]
(§5) In each of the cattle efficacy studies (3.3, 3.4 and 3.5), efficacy was assessed primarily on absence of recrudescence of parasitaemia for 100 days after treatment administration together with improvements in Packed Cell Volume, body weight and clinical signs of infected compared with uninfected animals. […]

[3] = tested on: T. vivax (STIB719); experiment: Cattle efficacy for compound 2, intravenous infusion (Clinvet), T. vivax; format: in vivo, Trypanosoma vivax; settings: Friesian-Holstein cattle infected with T. vivax; n = 4; at 100 days
Description: Unfortunately, an injection site tolerability issue arose during the pharmacokinetic study in cattle that was not evident in rats. […] To circumvent these issues, compound 2 was assessed in an in vivo proof of concept efficacy study in Friesian-Holstein cattle using an IV infusion regimen. The study was conducted in four animals infected with T. congolense (KONT2/133) and four animals infected with T. vivax (STIB719). Three additional animals infected with each strain formed the vehicle control groups and were dosed IV once daily with saline. Pharmacokinetic modeling was used to define a dosing regimen that mimics the blood concentration–time profile that delivered cure in mice (10 mg/kg SC once daily for 2 days, with a Ctrough of >20 ng/mL (>38 nM)). A continuous infusion over 36 h and two loading doses 24 h apart were required. […]
as §4, §5

| Compound | fraction unbound [1] | Cmax [2] [ng/mL] | Efficacy in cattle, IV bolus and infusion [3] |
| --- | --- | --- | --- |
| CC(C)CS(=O)(=O)N[C@H]1CC[C@H](Nc2nc(N)c(C(=O)c3c(F)cccc3F)s2)CC1 [Compound 1, N-((trans)-4-((4-Amino-5-(2,6-difluorobenzoyl)thiazol-2-yl)amino)cyclohexyl)-2-methylpropane-1-sulfonamide] | 0.16 | – | – |
| CC(C)CS(=O)(=O)N[C@H]1CC[C@H](Nc2nc(N)c(C(=O)c3c(F)cc(CN(C)C)cc3F)s2)CC1 [Compound 2, N-(trans)-[4-[[4-Amino-5-[4-(dimethylaminomethyl)-2,6-difluoro-benzoyl]thiazol-2-yl]amino]cyclohexyl]-2-methyl-propane-1-sulfonamide] | – | 34 to 65 | cured |
